Test results: patent US20250197428A1, “INHIBITORS OF KIF18A AND USES THEREOF” (ACCENT THERAPEUTICS, INC., priority 2022, published 2025)
Like-named read-outs stand apart in the source and are kept apart here.

Tests used:
OVCAR-3 cells = experiment: In vitro anti-proliferative activity assay in cancer cell line OVCAR-3 (CellTiter-Glo, 4- or 7-day); type: cell-based; settings: Homo sapiens, read-out: OVCAR-3 cellular antiproliferation assay IC50
KIF18A = KIF18A (Homo sapiens (Human), UniProt Q8NI77); experiment: KIF18A Biochemical Assay (ATPase, ADP-Glo)
Chain of KIF18A (Q8NI77 1-367): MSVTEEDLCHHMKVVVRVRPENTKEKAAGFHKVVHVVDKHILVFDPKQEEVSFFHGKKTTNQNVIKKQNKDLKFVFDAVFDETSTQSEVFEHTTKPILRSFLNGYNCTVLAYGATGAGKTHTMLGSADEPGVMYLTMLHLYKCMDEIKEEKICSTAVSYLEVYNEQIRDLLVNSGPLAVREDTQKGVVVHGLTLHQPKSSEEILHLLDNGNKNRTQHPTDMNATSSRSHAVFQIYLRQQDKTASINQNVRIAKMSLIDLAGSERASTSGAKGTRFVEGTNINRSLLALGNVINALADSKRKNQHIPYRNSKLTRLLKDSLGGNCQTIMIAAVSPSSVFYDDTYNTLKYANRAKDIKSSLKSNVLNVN
Chain of KIF18A (P02550 whole entry partner): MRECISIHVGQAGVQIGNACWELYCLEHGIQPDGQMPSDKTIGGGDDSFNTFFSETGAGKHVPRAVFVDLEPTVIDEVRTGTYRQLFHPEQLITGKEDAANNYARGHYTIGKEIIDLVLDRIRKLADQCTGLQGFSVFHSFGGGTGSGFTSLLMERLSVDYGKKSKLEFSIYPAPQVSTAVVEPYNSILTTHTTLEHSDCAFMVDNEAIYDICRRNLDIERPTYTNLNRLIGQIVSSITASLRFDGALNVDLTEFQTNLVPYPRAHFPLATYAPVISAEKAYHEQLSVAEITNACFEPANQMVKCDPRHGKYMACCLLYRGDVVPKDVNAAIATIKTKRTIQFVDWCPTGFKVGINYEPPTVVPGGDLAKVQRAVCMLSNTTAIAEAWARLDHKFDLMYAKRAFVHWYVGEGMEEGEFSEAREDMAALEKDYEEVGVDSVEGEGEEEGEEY
Chain of KIF18A (P02554 whole entry partner): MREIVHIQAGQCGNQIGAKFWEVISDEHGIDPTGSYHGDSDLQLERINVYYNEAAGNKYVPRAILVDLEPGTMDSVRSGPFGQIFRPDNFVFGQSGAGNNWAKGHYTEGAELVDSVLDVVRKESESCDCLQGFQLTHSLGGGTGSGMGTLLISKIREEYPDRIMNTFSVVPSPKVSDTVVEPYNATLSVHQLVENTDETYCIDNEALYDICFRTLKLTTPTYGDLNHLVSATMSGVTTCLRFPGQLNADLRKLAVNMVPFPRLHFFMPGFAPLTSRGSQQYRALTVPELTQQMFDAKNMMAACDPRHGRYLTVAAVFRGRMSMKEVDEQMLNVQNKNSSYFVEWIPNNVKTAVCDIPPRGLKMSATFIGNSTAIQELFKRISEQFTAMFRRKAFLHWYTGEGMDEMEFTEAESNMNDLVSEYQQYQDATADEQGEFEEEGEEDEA

[1] = OVCAR-3, assay duration not indicated

IC50 (OVCAR-3 cells; OVCAR-3, 168 h, 7-day assay) [µM]	IC50 (KIF18A) [µM]	IC50 (OVCAR-3 cells; [1]) [µM]	SMILES	IC50 (OVCAR-3 cells; OVCAR-3, 96 h, 4-day assay) [µM]
–	< 0.1	–	Cc1cc(NC(=O)c2ccc(NS(=O)(=O)CCO)cc2N2CC[C@]3(C(F)F)C[C@@H]3C2)nc(N2CCC(F)(F)CC2)n1 [Example 29a, 2-((1S,6R)-6-(difluoromethyl)-3-azabicyclo[4.1.0]heptan-3-yl)-N-(2-(4,4-difluoropiperidin-1-yl)-6-methylpyrimidin-4-yl)-4-((2-hydroxyethyl)sulfonamido)benzamide]	< 0.1
–	0.1 to 0.5	–	Cc1cc(NC(=O)c2ccc(NS(=O)(=O)CCO)cc2N2CCC3(CO)CC3C2)nc(N2CCC(F)(F)CC2)n1 (stereo not drawn) [Example 30, N-(2-(4,4-difluoropiperidin-1-yl)-6-methylpyrimidin-4-yl)-4-((2-hydroxyethyl)sulfonamido)-2-(6-(hydroxymethyl)-3-azabicyclo[4.1.0]heptan-3-yl)benzamide]	> 1
–	0.1 to 0.5	–	Cc1cc(NC(=O)c2ccc(NS(=O)(=O)CCO)cc2N2CC[C@@]3(CO)C[C@H]3C2)nc(N2CCC(F)(F)CC2)n1 [Example 39]	> 1
–	> 1	–	Cc1cc(NC(=O)c2ccc(NS(=O)(=O)CCO)cc2N2CC[C@]3(CO)C[C@@H]3C2)nc(N2CCC(F)(F)CC2)n1 [Example 40]	> 1
–	< 0.1	< 0.1	Cc1cc(NC(=O)c2ccc(NS(=O)(=O)CCO)cc2N2CCC3(C(F)F)CC3C2)nc(N2CCC(F)(F)CC2)n1 (stereo not drawn) [Example 41]	–
0.5 to 1	< 0.1	–	Cc1cc(NC(=O)c2ccc(NS(C)(=O)=O)cc2N2CC[C@@]3(C(F)F)C[C@H]3C2)nc(N2CCC(F)(F)CC2)n1 [Example 55]	–
> 1	0.1 to 0.5	–	Cc1cc(NC(=O)c2ccc(NS(=O)(=O)NCCO)cc2N2CC[C@@]3(C(F)F)C[C@H]3C2)nc(N2CCC(F)(F)CC2)n1 [Example 57]	–
0.1 to 0.5	< 0.1	–	Cc1cc(NC(=O)c2ccc(NS(=O)(=O)CCO)cc2N2CC[C@@]3(C(F)F)C[C@H]3C2)nc(N2CCC(F)(F)CC2)n1 [Example 59]	–
0.1 to 0.5	< 0.1	–	O=C(Nc1ccnc(N2CCC(F)(F)CC2)n1)c1ccc(NS(=O)(=O)CCO)cc1N1CC[C@@]2(C(F)F)C[C@H]2C1 [Example 61]	–
< 0.1	< 0.1	–	O=C(Nc1cccc(N2CCC(F)(F)CC2)n1)c1ccc(NS(=O)(=O)CCO)cc1N1CC[C@]2(C(F)F)C[C@@H]2C1 [Example 64]	–
< 0.1	< 0.1	–	Cc1cc(NC(=O)c2ccc(NS(=O)(=O)CCO)cc2N2CC[C@]3(C(F)F)C[C@@H]3C2)nc(N2CCC(F)(F)CC2)c1 [Example 65]	–
> 1	> 1	–	Cc1cc(NC(=O)c2ccc(NS(=O)(=O)CCO)cc2N2CC[C@]3(C(F)F)C[C@@H]3C2)nc(OC[C@H](O)C(F)(F)F)n1 [Example 67]	–
> 1	> 1	–	Cc1cc(NC(=O)c2ccc(NS(=O)(=O)CCO)cc2N2CC[C@@]3(C(F)F)C[C@H]3C2)nc(OC[C@H](O)C(F)(F)F)n1 [Example 68]	–
> 1	> 1	–	Cc1cc(NC(=O)c2ccc(NS(=O)(=O)CCO)cc2N2CC[C@]3(C(F)F)C[C@@H]3C2)nc(OC[C@@H](O)C(F)(F)F)n1 [Example 73]	–
> 1	> 1	–	Cc1cc(NC(=O)c2ccc(NS(=O)(=O)CCO)cc2N2CC[C@@]3(C(F)F)C[C@H]3C2)nc(OC[C@@H](O)C(F)(F)F)n1 [Example 74]	–
0.1 to 0.5	< 0.1	–	O=C(Nc1ccnc(C2CCC(F)(F)CC2)n1)c1ccc(NS(=O)(=O)CCO)cc1N1CC[C@@]2(C(F)F)C[C@H]2C1 [Example 76]	–

Second part, the compound before the results:

SMILES	IC50 (OVCAR-3 cells; OVCAR-3, 168 h, 7-day assay) [µM]	IC50 (KIF18A) [µM]	IC50 (OVCAR-3 cells; [1]) [µM]	IC50 (OVCAR-3 cells; OVCAR-3, 96 h, 4-day assay) [µM]
Cc1cc(NC(=O)c2c(F)cc(NS(=O)(=O)CCO)cc2N2CC[C@]3(C)C[C@@H]3C2)nc(N2CCC(F)(F)CC2)n1 (single isomer, unassigned) [Example 31a]	0.1 to 0.5	–	–	–
Cc1cc(NC(=O)c2c(F)cc(NS(=O)(=O)CCO)cc2N2CC[C@@]3(C)C[C@H]3C2)nc(N2CCC(F)(F)CC2)n1 (single isomer, unassigned) [Example 31b]	0.1 to 0.5	–	–	–
COC[C@]12CCN(c3cc(NS(=O)(=O)CCO)ccc3C(=O)Nc3cc(C)nc(N4CCC(F)(F)CC4)n3)C[C@H]1C2 (single isomer, unassigned) [Example 49a]	0.1 to 0.5	< 0.1	–	–
Cc1cc(NC(=O)c2ccc(NS(=O)(=O)CCO)cc2N2CC[C@]3(F)CC[C@@H]3C2)nc(N2CCC(F)(F)CC2)n1 (single isomer, unassigned) [Example 50a]	0.1 to 0.5	< 0.1	–	–
C[Si]1(C)CCN(c2cc(NS(=O)(=O)CCO)ccc2C(=O)Nc2cccc(N3CCC(F)(F)CC3)n2)CC1 [Example 3, N-(6-(4,4-difluoropiperidin-1-yl)pyridin-2-yl)-2-(4,4-dimethyl-1,4-azasilinan-1-yl)-4-((2-hydroxyethyl)sulfonamido)benzamide]	–	< 0.1	–	< 0.1
C[Si]1(C)CCN(c2cc(NS(=O)(=O)CCO)c(F)cc2C(=O)Nc2ccnc(N3CCC(F)(F)CC3)n2)CC1 [Example 13]	–	< 0.1	–	0.5 to 1
C[Si]1(C)CCN(c2cc(NS(=O)(=O)CCO)ccc2C(=O)Nc2ccnc(C3CC3)n2)CC1 [Example 15]	–	< 0.1	–	> 1
CC1CN(c2cccc(NC(=O)c3ccc(S(=O)(=O)NCCO)cc3N3CC[Si](C)(C)CC3)n2)CCO1 (stereo not drawn) [Example 18]	–	< 0.1	–	< 0.1
CC1CN(c2cccc(NC(=O)c3ccc(NS(=O)(=O)CCO)cc3N3CC[Si](C)(C)CC3)n2)CCO1 (stereo not drawn) [Example 19]	–	< 0.1	–	< 0.1
C[Si]1(C)CCN(c2cc(NS(=O)(=O)CCO)ccc2C(=O)Nc2cccc(S(=O)(=O)C3CCCC3)n2)CC1 [Example 22]	–	0.1 to 0.5	–	< 0.1
C[Si]1(C)CCN(c2cc(NS(=O)(=O)CCO)ccc2NC(=O)c2ccnc(N3CCC(F)(F)CC3)n2)CC1 [Example 23]	–	0.1 to 0.5	–	0.1 to 0.5
CC(C)(C)NS(=O)(=O)c1cccc(NC(=O)c2ccc(S(=O)(=O)C3(C)COC3)cc2N2CC[Si](C)(C)CC2)c1 [Example 24]	–	–	–	0.1 to 0.5
O=C(Nc1ccnc(N2CCC(F)(F)CC2)n1)c1ccc2c(cnn2CCO)c1N1CCC2(CC1)CC2 [Example 25]	–	> 1	–	–
Cc1cc(NC(=O)c2ncc(NS(=O)(=O)CCO)cc2N2CC[Si](C)(C)CC2)nc(N2CCC(F)(F)CC2)n1 [Example 26]	–	< 0.1	–	0.1 to 0.5
C[Si]1(C)CCN(c2cnccc2C(=O)Nc2cccc(S(=O)(=O)N3CCC(F)(F)CC3)c2)CC1 [Example 27]	–	> 1	–	> 1
Cc1cc(NC(=O)c2ccc(NS(C)(=O)=O)cc2N2CC[C@@]3(C)C[C@H]3C2)nc(N2CCC(F)(F)CC2)n1 [Example 32]	–	< 0.1	–	> 1
Cc1cc(NC(=O)c2ccc(NS(C)(=O)=O)cc2N2CC[C@]3(C)C[C@@H]3C2)nc(N2CCC(F)(F)CC2)n1 [Example 33]	–	< 0.1	–	0.1 to 0.5
Cc1cc(NC(=O)c2c(F)cc(NS(=O)(=O)CCO)cc2N2CC[C@]3(C)C[C@@H]3C2)nc(N2CCC(F)(F)CC2)n1 [Example 38]	–	< 0.1	0.1 to 0.5	–

SMILES	IC50 (OVCAR-3 cells; OVCAR-3, 168 h, 7-day assay) [µM]	IC50 (KIF18A) [µM]	IC50 (OVCAR-3 cells; [1]) [µM]	IC50 (OVCAR-3 cells; OVCAR-3, 96 h, 4-day assay) [µM]
Cc1cc(NC(=O)c2ccc(NS(=O)(=O)NCCO)cc2N2CC[C@@]3(C)C[C@H]3C2)nc(N2CCC(F)(F)CC2)n1 [Example 42]	–	< 0.1	–	> 1
Cc1cc(NC(=O)c2ccc(NS(=O)(=O)NCCO)cc2N2CC[C@]3(C)C[C@@H]3C2)nc(N2CCC(F)(F)CC2)n1 [Example 43]	–	< 0.1	–	> 1
O=C(Nc1cccc(S(=O)(=O)N2CCC(F)(F)CC2)c1)c1cccnc1N1CCC2CC2C1 (stereo not drawn) [Example 44]	–	> 1	–	–
CC12CCN(c3ncccc3C(=O)Nc3cccc(S(=O)(=O)N4CCC(F)(F)CC4)c3)CC1C2 (stereo not drawn) [Example 45]	–	–	–	> 1
C[C@]12CCN(c3ncccc3C(=O)Nc3cccc(S(=O)(=O)N4CCC(F)(F)CC4)c3)C[C@H]1C2 [Example 46]	–	–	–	> 1
C[C@@]12CCN(c3ncccc3C(=O)Nc3cccc(S(=O)(=O)N4CCC(F)(F)CC4)c3)C[C@@H]1C2 [Example 47]	–	> 1	–	–
Cc1cc(NC(=O)c2ccc(S(=O)(=O)NCCO)cc2N2CC[C@]3(C)C[C@@H]3C2)nc(N2CCC(F)(F)CC2)n1 [Example 52]	0.1 to 0.5	< 0.1	–	–
Cc1cc(NC(=O)c2ccc(S(=O)(=O)NCCO)cc2N2CC[C@@]3(C)C[C@H]3C2)nc(N2CCC(F)(F)CC2)n1 [Example 53]	0.1 to 0.5	< 0.1	–	–
Cc1cc(NC(=O)c2ccc(NS(=O)(=O)CCO)cc2N2CC[C@]3(C)C[C@@H]3C2)nc(N2CCC(F)(F)CC2)n1 [Example 62]	< 0.1	–	–	–
Cc1cc(NC(=O)c2ccc(NS(=O)(=O)CCO)cc2N2CC[C@@]3(C)C[C@H]3C2)nc(N2CCC(F)(F)CC2)n1 [Example 63]	< 0.1	–	–	–
O=C(Nc1ccnc(N2CCC(F)(F)CC2)n1)c1c(F)cc(NS(=O)(=O)CCO)cc1N1CC[C@]2(C(F)F)C[C@@H]2C1 [Example 69]	> 1	< 0.1	–	–
Cc1cc(NC(=O)c2c(F)cc(NS(=O)(=O)CCO)cc2N2CC[C@]3(C(F)F)C[C@@H]3C2)nc(N2CCC(F)(F)CC2)n1 [Example 71]	> 1	0.1 to 0.5	–	–
C[Si]1(C)CCN(c2cc(NS(=O)(=O)CCO)ccc2C(=O)Nc2ccnc(S(=O)(=O)C3CCCC3)n2)CC1 [Example 89]	0.1 to 0.5	–	–	–
C[C@H]1CN(c2nccc(C(=O)Nc3ccc(NS(=O)(=O)CCO)cc3N3CC[Si](C)(C)CC3)n2)CCO1 [Example 91]	0.1 to 0.5	–	–	–
CC[Si]1(CC)CCN(c2ncccc2C(=O)Nc2cccc(S(=O)(=O)N3CCC(F)(F)CC3)c2)CC1 [Example 92]	> 1	–	–	–
C[Si]1(C)CCN(c2ncccc2C(=O)Nc2cccc(S(=O)(=O)N3CCC(F)(F)CC3)c2)C1 [Example 93]	> 1	–	–	–
C[Si]1(C)CCN(c2cc(NS(=O)(=O)CCO)c(F)cc2NC(=O)c2cccc(N3CCC(F)(F)CC3)n2)CC1 [Example 95]	–	–	–	< 0.1
